Columns and labels:
Type in all cases: functional
Nucleic Acid [1] = experiment: Percentage of cleavage in single stranded peptide nucleic acid was measured after treating with compound for 30 min; selectivity factor=1; PNA:DNA=5a:6
Nucleic Acid [2] = experiment: Percentage of cleavage in single stranded peptide nucleic acid (PNA) DNA duplex was measured after treating with compound for 30 min; selectivity factor=1; PNA:DNA=5a:6
Nucleic Acid [3] = experiment: Percentage of cleavage in single stranded peptide nucleic acid (PNA) DNA duplex was measured after treating with compound for 2 min; selectivity factor=1.5; PNA:DNA=5a:6
Nucleic Acid [4] = experiment: Percentage of cleavage in single stranded peptide nucleic acid was measured after treating with compound for 2 min; selectivity factor=1.5; PNA:DNA=5a:6
Nucleic Acid [5] = experiment: Percentage of cleavage in single stranded peptide nucleic acid (PNA) DNA duplex was measured after treating with compound for 0.5 min; selectivity factor=0.9; PNA:DNA=5a:6
Nucleic Acid [6] = experiment: Percentage of cleavage in single stranded peptide nucleic acid was measured after treating with compound for 0.5 min; selectivity factor=0.9; PNA:DNA=5a:6
Nucleic Acid [7] = experiment: Percentage of cleavage in single stranded peptide nucleic acid (PNA) DNA duplex was measured after treating with compound for 10 min; selectivity factor=0.6; PNA:DNA=5a:6
Nucleic Acid [8] = experiment: Percentage of cleavage in single stranded peptide nucleic acid was measured after treating with compound for 10 min; selectivity factor=0.6; PNA:DNA=5a:6
Nucleic Acid [9] = experiment: Percentage of cleavage in single stranded peptide nucleic acid was measured after treating with compound for 30 min; selectivity factor=0.7; PNA:DNA=5a:6
Nucleic Acid [10] = experiment: Percentage of cleavage in single stranded peptide nucleic acid (PNA) DNA duplex was measured after treating with compound for 30 min; selectivity factor=0.7; PNA:DNA=5a:6
Nucleic Acid [11] = experiment: Percentage of cleavage in single stranded peptide nucleic acid (PNA) DNA duplex was measured after treating with compound for 30 min; selectivity factor=10.2; PNA:DNA=5a:6
Nucleic Acid [12] = experiment: Percentage of cleavage in single stranded peptide nucleic acid was measured after treating with compound for 30 min; selectivity factor=10.2; PNA:DNA=5a:6
Nucleic Acid [13] = experiment: Percentage of cleavage in single stranded peptide nucleic acid (PNA) DNA duplex was measured after treating with compound for 30 min; selectivity factor=1.6; PNA:DNA=5a:6
Nucleic Acid [14] = experiment: Percentage of cleavage in single stranded peptide nucleic acid was measured after treating with compound for 30 min; selectivity factor=1.6; PNA:DNA=5a:6
Nucleic Acid [15] = experiment: Percentage of cleavage in single stranded peptide nucleic acid was measured after treating with compound for 300 min; selectivity factor=4.6; PNA:DNA=5a:6 (with NaCl 0.5 M)
Nucleic Acid [16] = experiment: Percentage of cleavage in single stranded peptide nucleic acid was measured after treating with compound for 300 min; selectivity factor=2.8; PNA:DNA=5c:8a
Nucleic Acid [17] = experiment: Percentage of cleavage in single stranded peptide nucleic acid (PNA) DNA duplex was measured after treating with compound for 300 min; selectivity factor=2.8; PNA:DNA=5c:8a
Nucleic Acid [18] = experiment: Percentage of cleavage in single stranded peptide nucleic acid was measured after treating with compound for 300 min; selectivity factor=23.8; PNA:DNA=5a:6
Nucleic Acid [19] = experiment: Percentage of cleavage in single stranded peptide nucleic acid was measured after treating with compound for 300 min; selectivity factor=10.1; PNA:DNA=5b:7
Nucleic Acid [20] = experiment: Percentage of cleavage in single stranded peptide nucleic acid (PNA) DNA duplex was measured after treating with compound for 300 min; selectivity factor=4.6; PNA:DNA=5a:6 (with NaCl 0.5 M)
Nucleic Acid [21] = experiment: Percentage of cleavage in single stranded peptide nucleic acid (PNA) DNA duplex was measured after treating with compound for 300 min; selectivity factor=23.8; PNA:DNA=5a:6
Nucleic Acid [22] = experiment: Percentage of cleavage in single stranded peptide nucleic acid (PNA)-DNA duplex was measured after treating with compound for 300 min; selectivity factor=10.1; PNA:DNA=5b:7
Nucleic Acid [23] = experiment: Percentage of cleavage in single stranded peptide nucleic acid was measured after treating with compound for 20 min; selectivity factor=57.1; PNA:DNA=5c:8
Nucleic Acid [24] = experiment: Percentage of cleavage in single stranded peptide nucleic acid (PNA) DNA duplex was measured after treating with compound for 20 min; selectivity factor=17.3; PNA:DNA=5b:7
Nucleic Acid [25] = experiment: Percentage of cleavage in single stranded peptide nucleic acid was measured after treating with compound for 20 min; selectivity factor=2.9; PNA:DNA=5b:7b
Nucleic Acid [26] = experiment: Percentage of cleavage in single stranded peptide nucleic acid (PNA) DNA duplex was measured after treating with compound for 20 min; selectivity factor=25.7; PNA:DNA=5c:8a
Nucleic Acid [27] = experiment: Percentage of cleavage in single stranded peptide nucleic acid (PNA) DNA duplex was measured after treating with compound for 2 min; selectivity factor>/=1; PNA:DNA=5a:6b
Nucleic Acid [28] = experiment: Percentage of cleavage in single stranded peptide nucleic acid was measured after treating with compound for 20 min; selectivity factor=17.3; PNA:DNA=5b:7
Nucleic Acid [29] = experiment: Percentage of cleavage in single stranded peptide nucleic acid (PNA) DNA duplex was measured after treating with compound for 20 min; selectivity factor=57.1; PNA:DNA=5c:8
Nucleic Acid [30] = experiment: Percentage of cleavage in single stranded peptide nucleic acid (PNA) DNA duplex was measured after treating with compound for 20 min; selectivity factor=2.9; PNA:DNA=5b:7b
Nucleic Acid [31] = experiment: Percentage of cleavage in single stranded peptide nucleic acid was measured after treating with compound for 2 min; selectivity factor>/=1; PNA:DNA=5a:6b
Nucleic Acid [32] = experiment: Percentage of cleavage in single stranded peptide nucleic acid was measured after treating with compound for 20 min; selectivity factor=7.4; PNA:DNA=5b:7a
Nucleic Acid [33] = experiment: Percentage of cleavage in single stranded peptide nucleic acid (PNA) DNA duplex was measured after treating with compound for 2 min; selectivity factor>1; PNA:DNA= 5a:6
Nucleic Acid [34] = experiment: Percentage of cleavage in single stranded peptide nucleic acid (PNA) DNA duplex was measured after treating with compound for 20 min; selectivity factor=22.2; PNA:DNA=5c:8b
Nucleic Acid [35] = experiment: Percentage of cleavage in single stranded peptide nucleic acid was measured after treating with compound for 20 min; selectivity factor=25.7; PNA:DNA=5c:8a
Nucleic Acid [36] = experiment: Percentage of cleavage in single stranded peptide nucleic acid was measured after treating with compound for 2 min; selectivity factor>1; PNA:DNA=5a:6
Nucleic Acid [37] = experiment: Percentage of cleavage in single stranded peptide nucleic acid was measured after treating with compound for 20 min; selectivity factor=22.2; PNA:DNA=5c:8b
Nucleic Acid [38] = experiment: Percentage of cleavage in single stranded peptide nucleic acid (PNA) DNA duplex was measured after treating with compound for 20 min; selectivity factor=7.4; PNA:DNA=5b:7a

SMILES: O=C(O)c1ccc(P(c2ccccc2)c2ccccc2)cc1
- Cleavage (Nucleic Acid [1]): 92.9%
- Cleavage (Nucleic Acid [2]): 88.6%

SMILES: NCCS
- Cleavage (Nucleic Acid [3]): 56.1%
- Cleavage (Nucleic Acid [4]): 86.8%

SMILES: CN(C)c1ccc(P(c2ccccc2)c2ccccc2)cc1
- Cleavage (Nucleic Acid [5]): 23%
- Cleavage (Nucleic Acid [6]): 19.5%

SMILES: NC(CS)C(=O)O (stereo not drawn)
- Cleavage (Nucleic Acid [7]): 28.4%
- Cleavage (Nucleic Acid [8]): 16.2%

SMILES: O=C(O)CCS
- Cleavage (Nucleic Acid [9]): 52.3%
- Cleavage (Nucleic Acid [10]): 78.9%

SMILES: OCC(S)C(S)CO (stereo not drawn)
- Cleavage (Nucleic Acid [11]): 7.6%
- Cleavage (Nucleic Acid [12]): 77.2%

SMILES: O=C(O)c1ccccc1P(c1ccccc1)c1ccccc1
- Cleavage (Nucleic Acid [13]): 43.7%
- Cleavage (Nucleic Acid [14]): 69.1%

SMILES: O=S(=O)(O)c1ccc(P(c2ccc(S(=O)(=O)O)cc2)c2ccc(S(=O)(=O)O)cc2)cc1
- Cleavage (Nucleic Acid [15]): 97.6%
- Cleavage (Nucleic Acid [16]): 95.2%
- Cleavage (Nucleic Acid [17]): 34.6%
- Cleavage (Nucleic Acid [18]): 88.1%
- Cleavage (Nucleic Acid [19]): 91.1%
- Cleavage (Nucleic Acid [20]): 21%
- Cleavage (Nucleic Acid [21]): 3.7%
- Cleavage (Nucleic Acid [22]): 9%

SMILES: O=C(O)CCP(CCC(=O)O)CCC(=O)O
- Cleavage (Nucleic Acid [23]): 97.6%
- Cleavage (Nucleic Acid [24]): 1.8%
- Cleavage (Nucleic Acid [25]): 31.2%
- Cleavage (Nucleic Acid [26]): 3.8%
- Cleavage (Nucleic Acid [27]): 98.6%
- Cleavage (Nucleic Acid [28]): 31.2%
- Cleavage (Nucleic Acid [29]): 1.7%
- Cleavage (Nucleic Acid [30]): 10.8%
- Cleavage (Nucleic Acid [31]): 100%
- Cleavage (Nucleic Acid [32]): 31.2%
- Cleavage (Nucleic Acid [33]): 70.7%
- Cleavage (Nucleic Acid [34]): 4.4%
- Cleavage (Nucleic Acid [35]): 97.6%
- Cleavage (Nucleic Acid [36]): 100%
- Cleavage (Nucleic Acid [37]): 97.6%
- Cleavage (Nucleic Acid [38]): 4.2%

Reference: ChEMBL document CHEMBL1144260, “Hybridization dependent cleavage of internally modified disulfide-peptide nucleic acids” (Bioorg Med Chem Lett, 2005)
